From US8785477B2, “Hexahydropyrrolo[3,4-b]pyrrole derivatives, preparation methods and pharmaceutical uses thereof” (Shanghai Sun-Sail Pharmaceutical Science & Technology Co., …, priority 2010, dated 2014)
Counter-ions that a name gives are not always drawn. Like-named read-outs stand apart in the source and are kept apart here.

Key:
normal ICR mice = assay: In vivo glucose-decreasing activity, oral glucose load in normal mice; settings: 3.0 mg/kg gavage; for AUC (area under curve of blood glucose): glucose load 60 min post-administration, x ± s
Protocol: 70 male clean-grade ICR mice with 20.0-24.0 g body weight were provided by Experimental Animal Center of Zhejiang University. Production license number of experimental animal: SCXK[zhe]2007-0039; Use license number of experimental animal: SYXK(zhe)2007-0098.
Feeding condition for animals: met the requirement for experimental facility of SPF grade animals, temperature at 20-25° C., humidity of 0-70%, illuminating condition was alternately 12 hours of brightness and 12 hours of darkness, ventilation rate was 10-20 times per hour, free access to water (city drinking water), illumination was 12 h/12 h of alternating light and dark at day and night respectively.
50 male clean-grade mice passing quarantine with 20.0-24.0 g body weight were randomly divided into 5 groups which included solvent control group, model group, compound dose group (3.0 mg/kg) respectively, 10 per group.
Mice in each group were fasted for 12 hours and then 0.08 mL blood was drawn by cutting tail. Serum was collected and used to determinating fasting blood glucose value. After drawing blood, mice in each dose group were administrated by gavage with different drug solution of corresponding dose and mice in solvent control and model group were administrated with distilled water of equal volume, wherein administration volume was 0.2 mL/10 g. 0.08 mL blood was drawn from each group at 60 minutes post-administration to determine the blood glucose value at 60 minutes post-administration. After drawing blood, […] glucose was administrated by gavage to each group except for solvent control group, wherein administration volume was 0.2 mL/10 g, and then blood was drawn at 20 min, 40 min, 60 min, 120 min after administration of glucose respectively, blood was centrifugated at 6000 rpm for 10 min to separate serum for determining the blood glucose value at each time point, area under curve of blood glucose was calculated on the basis of blood glucose concentration.

[1] = In vivo pharmacokinetic study in rats (gavage); parameters: species or system SD rats; settings: 20 mg/kg gavage
Protocol: 12 healthy, male SD rats with 200-220 g body weight were assigned randomly to 3 groups (4 in each group), particular assignment was shown in the table below:
Rats were fasted for 12 h before test with free access to water and uniformly fed at 2 h after administration.
Time points of blood collecting and samples treatment: 0.3 mL blood was drawn through mice post-glomus venous plexus at 0.25, 0.5, 1.0, 2.0, 3.0, 4.0, 5.0, 7.0, 9.0 and 24 hours post-administration, placed in heparinized test tube, centrifuged at 3000 rpm/min for 10 minutes, separated plasma, frozen in refrigerator at −20° C. Unchanged drug concentration in plasma was determined by liquid chromatography-tandem mass spectrometry method.

DPPIV [2] = target: T1, DPPIV (Homo sapiens (Human), UniProt P27487); assay: DPP-IV-inhibiting activity, fluorescence assay with Ala-Pro-AMC substrate; type: biochemical; settings: pH7.5, 37° C.
T1 sequence (P27487 whole entry): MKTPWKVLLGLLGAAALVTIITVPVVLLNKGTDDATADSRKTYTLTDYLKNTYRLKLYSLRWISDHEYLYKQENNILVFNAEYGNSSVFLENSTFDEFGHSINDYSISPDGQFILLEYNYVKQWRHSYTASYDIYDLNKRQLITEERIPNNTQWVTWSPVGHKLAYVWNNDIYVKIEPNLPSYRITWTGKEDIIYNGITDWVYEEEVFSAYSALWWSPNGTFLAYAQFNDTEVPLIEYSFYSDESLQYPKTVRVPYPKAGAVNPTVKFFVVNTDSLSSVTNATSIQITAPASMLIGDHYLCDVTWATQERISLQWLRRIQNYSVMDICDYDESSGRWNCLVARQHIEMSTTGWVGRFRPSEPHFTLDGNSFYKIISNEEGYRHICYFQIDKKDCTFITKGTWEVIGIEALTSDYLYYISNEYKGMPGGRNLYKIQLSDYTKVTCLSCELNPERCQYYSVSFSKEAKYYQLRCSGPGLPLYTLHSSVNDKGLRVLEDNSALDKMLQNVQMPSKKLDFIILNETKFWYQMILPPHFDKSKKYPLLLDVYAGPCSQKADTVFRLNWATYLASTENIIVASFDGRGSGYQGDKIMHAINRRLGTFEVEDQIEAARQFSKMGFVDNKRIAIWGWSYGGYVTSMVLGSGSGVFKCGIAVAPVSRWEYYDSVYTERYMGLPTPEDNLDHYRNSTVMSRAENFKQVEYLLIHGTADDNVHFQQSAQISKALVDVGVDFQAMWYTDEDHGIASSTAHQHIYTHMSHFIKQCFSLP
Protocol: Determination of DPP-IV-inhibiting activity could be performed by common methods. DPP-IV was pure enzyme expressed by using baculovirus expressing system and purified. […] The reaction system was carried out in buffer of pH7.5 and the substrate was alanine-proline-7-amino-4-methylcoumarin (Ala-Pro-AMC).
DPP-IV could degradate substrate Ala-Pro-AMC to give product AMC. […] The DPP-IV activity could be determined by dynamic detecting the increasing speed of fluorescence value at 460 nm.
Thoroughly mixed test compounds, enzyme and reaction buffer, preincubated the mixture for 15 minutes at 37° C. and then primed reaction by adding substrate, successfully detecting fluorescence value at 460 nm for 5 minutes. […] All final reaction volumes were 100 μL. Each concentration of each sample consisted of parallel wells in triplate.
Firstly, calculated the increment of fluorescence intensity per unit time during the initial speed of enzyme (unit: RFU/sec) which can be used to express initial speed, then calculated activity percentage of sample in each concentration group as follows: Activity %=vsample/vDMSO*100%
Wherein, vsample represents initial speed of sample in each concentration group, vDMSO represents initial speed of DMSO group.
Logarithm concentration was plotted versus activity percentage, and then calculated fitting curve by nonlinear regression from which IC50 value was calculated.

FAP = FAP (Homo sapiens (Human), UniProt Q12884); assay: Selectivity panel, recombinant dipeptidase inhibition (fluorescence substrate): FAP; type: biochemical
FAP, sequence (Q12884 whole entry): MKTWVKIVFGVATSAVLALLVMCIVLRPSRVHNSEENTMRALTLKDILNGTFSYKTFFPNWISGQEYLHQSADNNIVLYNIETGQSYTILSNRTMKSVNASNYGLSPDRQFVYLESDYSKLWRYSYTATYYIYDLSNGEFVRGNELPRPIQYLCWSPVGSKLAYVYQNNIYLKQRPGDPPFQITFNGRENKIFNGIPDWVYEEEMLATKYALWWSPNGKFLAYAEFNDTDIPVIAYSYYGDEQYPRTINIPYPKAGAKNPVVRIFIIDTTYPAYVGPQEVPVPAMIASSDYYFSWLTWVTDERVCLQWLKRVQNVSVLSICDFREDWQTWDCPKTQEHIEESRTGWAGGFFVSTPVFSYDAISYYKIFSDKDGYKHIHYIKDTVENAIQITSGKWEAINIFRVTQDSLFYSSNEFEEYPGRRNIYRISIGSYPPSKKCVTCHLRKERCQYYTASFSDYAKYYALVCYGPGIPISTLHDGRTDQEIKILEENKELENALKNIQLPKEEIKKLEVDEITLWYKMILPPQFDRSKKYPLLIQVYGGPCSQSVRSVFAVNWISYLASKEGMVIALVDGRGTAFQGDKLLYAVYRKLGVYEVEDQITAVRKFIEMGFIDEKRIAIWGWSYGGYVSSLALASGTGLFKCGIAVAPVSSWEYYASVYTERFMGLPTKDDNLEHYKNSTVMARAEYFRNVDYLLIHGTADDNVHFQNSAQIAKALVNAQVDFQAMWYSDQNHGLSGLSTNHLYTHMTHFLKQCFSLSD
Text: (§1) The recombinant proteins of DPPIV, DPP8, DPP9 and FAP were expressed by using insect expression system (purchased from Shanghai Jinmai Biotechnology Co. Ltd). The activities of these […] were detected by using fluorescence substrate.

DPP9 = DPP9 (Homo sapiens (Human), UniProt Q86TI2); assay: Selectivity panel, recombinant dipeptidase inhibition (fluorescence substrate): DPP9; type: biochemical; settings: for Selective ratio DPP9/DPPIV: ratio of IC50 values; for IC50: recombinant DPP9
DPP9, sequence (Q86TI2 whole entry): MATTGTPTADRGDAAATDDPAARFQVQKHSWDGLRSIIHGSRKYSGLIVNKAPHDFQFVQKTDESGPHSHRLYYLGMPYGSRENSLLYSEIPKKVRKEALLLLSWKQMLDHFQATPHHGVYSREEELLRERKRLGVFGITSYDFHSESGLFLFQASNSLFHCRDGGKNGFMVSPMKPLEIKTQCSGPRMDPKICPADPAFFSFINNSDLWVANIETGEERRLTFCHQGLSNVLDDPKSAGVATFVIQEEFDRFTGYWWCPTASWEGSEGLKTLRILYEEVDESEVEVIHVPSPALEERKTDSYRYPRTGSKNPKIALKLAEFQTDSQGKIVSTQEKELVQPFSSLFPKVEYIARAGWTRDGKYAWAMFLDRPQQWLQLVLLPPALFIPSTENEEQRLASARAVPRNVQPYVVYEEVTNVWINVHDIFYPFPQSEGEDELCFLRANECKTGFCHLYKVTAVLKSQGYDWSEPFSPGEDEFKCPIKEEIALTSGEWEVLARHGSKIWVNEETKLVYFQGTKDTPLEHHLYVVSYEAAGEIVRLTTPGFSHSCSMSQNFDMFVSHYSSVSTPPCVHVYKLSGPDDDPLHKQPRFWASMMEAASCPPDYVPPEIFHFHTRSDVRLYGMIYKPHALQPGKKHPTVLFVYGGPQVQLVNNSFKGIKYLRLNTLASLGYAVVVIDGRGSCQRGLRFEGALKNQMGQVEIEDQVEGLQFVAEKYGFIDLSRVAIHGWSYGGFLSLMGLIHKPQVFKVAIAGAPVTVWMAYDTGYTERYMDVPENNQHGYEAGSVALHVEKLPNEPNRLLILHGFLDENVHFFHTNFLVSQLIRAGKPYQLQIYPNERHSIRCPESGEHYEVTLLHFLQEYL
Text: as §1

DPP8 = DPP8 (Homo sapiens (Human), UniProt Q6V1X1); assay: Selectivity panel, recombinant dipeptidase inhibition (fluorescence substrate): DPP8; type: biochemical; settings: for Selective ratio DPP8/DPPIV: ratio of IC50 values; for IC50: recombinant DPP8
DPP8, sequence (Q6V1X1 whole entry): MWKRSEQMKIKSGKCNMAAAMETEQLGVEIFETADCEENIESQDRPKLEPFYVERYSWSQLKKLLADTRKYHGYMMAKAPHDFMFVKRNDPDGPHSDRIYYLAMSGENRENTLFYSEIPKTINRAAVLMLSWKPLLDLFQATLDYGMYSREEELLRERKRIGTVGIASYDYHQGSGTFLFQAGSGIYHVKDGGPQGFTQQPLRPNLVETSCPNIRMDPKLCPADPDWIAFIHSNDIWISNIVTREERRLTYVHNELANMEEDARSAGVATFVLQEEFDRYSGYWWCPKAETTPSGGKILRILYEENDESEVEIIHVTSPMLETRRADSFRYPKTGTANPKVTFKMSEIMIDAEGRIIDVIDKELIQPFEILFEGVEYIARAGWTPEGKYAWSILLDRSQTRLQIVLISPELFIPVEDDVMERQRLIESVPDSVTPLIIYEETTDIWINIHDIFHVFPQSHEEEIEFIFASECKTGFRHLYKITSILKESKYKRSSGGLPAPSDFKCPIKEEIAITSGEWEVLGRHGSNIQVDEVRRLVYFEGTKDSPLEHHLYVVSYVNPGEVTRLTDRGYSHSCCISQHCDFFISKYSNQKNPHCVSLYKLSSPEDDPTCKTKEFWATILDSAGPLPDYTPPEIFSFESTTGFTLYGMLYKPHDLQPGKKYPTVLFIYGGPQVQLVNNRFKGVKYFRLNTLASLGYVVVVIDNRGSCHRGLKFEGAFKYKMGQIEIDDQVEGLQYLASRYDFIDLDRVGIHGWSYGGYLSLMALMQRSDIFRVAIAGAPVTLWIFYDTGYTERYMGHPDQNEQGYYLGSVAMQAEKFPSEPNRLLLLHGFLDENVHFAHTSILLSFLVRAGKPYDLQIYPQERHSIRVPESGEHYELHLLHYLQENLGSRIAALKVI
Text: as §1

DPPIV [3] = target: T1, DPPIV; assay: Selectivity panel, recombinant dipeptidase inhibition (fluorescence substrate): DPPIV; type: biochemical
Text: as §1

[4] = male, SD, rat, plasma, po, read-out: Cmax
[5] = male, SD, rat, plasma, po, read-out: Tmax

SMILES | IC50 (DPPIV [2]) [nM] | inhibition rate (blood glucose AUC) (normal ICR mice) [%] | AUC (area under curve of blood glucose) (normal ICR mice) [mmol·min/L] | AUC0−t [1] [ngh/mL] | IC50 (FAP) [nM] | Selective ratio DPP9/DPPIV (DPP9) | IC50 (DPP9) [nM] | Selective ratio DPP8/DPPIV (DPP8) | IC50 (DPP8) [nM] | IC50 (DPPIV [3]) [nM] | other results
N[C@@H](CC(=O)N1CCn2c(nnc2C(F)(F)F)C1)Cc1cc(F)c(F)cc1F [Sitagliptin, reference compound] | – | 31.1 | 240 ± 24 | 1655 | – | – | – | – | – | – | Cmax [1]: 477 ng/mL; T1/2 [1]: 2.11 h; Tmax [1]: 0.44 h
CC(C)(C)C(=O)N1C[C@@H]2CCN(C(=O)C[C@H](N)Cc3cc(F)c(F)cc3F)[C@@H]2C1 [Compound 20, (R)-3-amino-1-((3aS,6aS)-5-(tertvaleryl)-hexahydropyrrolo[3,4-b]pyrrol-1(2H)-yl)-4-(2,4,5-trifluorophenyl)butan-1-one fumarate] | 23.2 ± 2.24 | 38.3 | 215 ± 44 | 2076 | 15900 ± 4720 | 241 | 5550 ± 2520 | 907 | 20900 ± 5630 | 23 | half-life ([1]; male, SD, rat, plasma, po): 2.45 h; Cmax [1, 4]: 917 ng/mL; Tmax [1, 5]: 0.81 h
CS(=O)(=O)c1cccc(C(=O)N2C[C@@H]3CCN(C(=O)C[C@H](N)Cc4cc(F)c(F)cc4F)[C@@H]3C2)c1.O=C(O)/C=C/C(=O)O [Compound 26, (R)-3-amino-1-((3aS,6aS)-5-(3-mesylbenzoyl)-hexahydropyrrolo[3,4-b]pyrrol-1(2H)-yl)-4-(2,4,5-trifluorophenyl)butan-1-one fumarate] | 2.61 ± 0.46 | – | – | – | 11300 ± 4020 | 1311 | 3450 ± 3470 | 6057 | 15800 ± 7650 | 2.6 | –
CC(C)(F)C(=O)N1C[C@@H]2CCN(C(=O)C[C@H](N)Cc3cc(F)c(F)cc3F)[C@@H]2C1 [Compound 8, (R)-3-amino-1-((3aS,6aS)-5-(2-fluoro-2-methylpropionyl)-hexahydropyrrolo[3,4-b]pyrrol-1(2H)-yl)-4-(2,4,5-trifluorophenyl)butan-1-onefumarate] | 11.2 ± 3.76 | 63.0 | 129 ± 41 | 2921 | 13500 ± 280 | 322 | 3550 ± 1020 | 1602 | 17600 ± 3610 | 11 | half-life ([1]; male, SD, rat, plasma, po): 2.29 h; Cmax [1, 4]: 933 ng/mL; Tmax [1, 5]: 1 h

More lines, main results first:

IC50 (DPPIV [2]) [nM] | SMILES | inhibition rate (blood glucose AUC) (normal ICR mice) [%] | AUC (area under curve of blood glucose) (normal ICR mice) [mmol·min/L] | AUC0−t [1] [ngh/mL] | IC50 (FAP) [nM] | Selective ratio DPP9/DPPIV (DPP9) | IC50 (DPP9) [nM] | Selective ratio DPP8/DPPIV (DPP8) | IC50 (DPP8) [nM] | IC50 (DPPIV [3]) [nM] | other results
22.8 ± 1.99 | CN1C[C@@H]2CCN(C(=O)C[C@H](N)Cc3cc(F)c(F)cc3F)[C@@H]2C1 [Compound 1, (R)-3-amino-1-((3aS,6aS)-hexahydro-5-methylpyrrolo[3,4-b]pyrrol-1(2H)-yl)-4-(2,4,5-trifluorophenyl)butan-1-one fumarate] | – | – | – | – | – | – | – | – | – | –
11.5 | N#CC1(C(=O)N2C[C@@H]3CCN(C(=O)C[C@H](N)Cc4cc(F)c(F)cc4F)[C@@H]3C2)CC1 [Compound 17, (R)-3-amino-1-((3aS,6aS)-5-(1-cyanocyclopropylcarbonyl)-hexahydropyrrolo[3,4-b]pyrrol-1(2H)-yl)-4-(2,4,5-trifluorophenyl)butan-1-one fumarate] | – | – | – | – | – | – | – | – | – | –
17.7 ± 3.77 | CN(C)C(=O)N1C[C@@H]2CCN(C(=O)C[C@H](N)Cc3cc(F)c(F)cc3F)[C@@H]2C1 [Compound 3, (R)-3-amino-1-((3aS,6aS)-5-(N,N-dimethylaminoformyl)-hexahydropyrrolo[3,4-b]pyrrol-1(2H)-yl)-4-(2,4,5-trifluorophenyl)butane-1-one fumarate] | – | – | – | – | – | – | – | – | – | –
25.9 ± 3.91 | N[C@@H](CC(=O)N1CC[C@H]2CN(C(=O)C3CC3)C[C@H]21)Cc1cc(F)c(F)cc1F [Compound 12, (R)-3-amino-1-((3aS,6aS)-5-(cyclopropylcarbonyl)-hexahydropyrrolo[3,4-b]pyrrol-1(2H)-yl)-4-(2,4,5-trifluorophenyl)butan-1-one fumarate] | – | – | – | – | – | – | – | – | – | –
